Assay results reported in PubChem BioAssay AID977628 (Broad Institute, 2014).
Inconclusive results are not listed. Active and inactive are the calls of the source.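 The calls were made as follows: active = compound lowering the normal-ribosome reporter at least twice as much as the humanized-ribosome reporter, growth loss under a set limit; inconclusive = no clear call, values can overlap the other calls; inactive = the rest.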

Tested on: E. coli WT GFP strain growth, fluorescence, 24 h
Assay: E. coli growth inhibition, wild-type GFP versus h24 humanized RFP strain, dose response, h24 mutant RFP vs wild-type GFP, cherry-pick (AID 977628)

Row | SMILES | AC50 | AC50 (measured here: WT GFP, test 1)
1 | Cc1cccc(NC(=O)c2sc3nc(-c4ccccc4)cn3c2C)n1 | > 100 µM (inactive) | 
2 | CCN(CC)CCN(C(=O)c1ccc2c(c1)OCCO2)c1nc2cc(C)cc(C)c2s1 | > 100 µM (inactive) | 
3 | CCN(CC)S(=O)(=O)c1cc(NS(=O)(=O)c2cccc(Cl)c2Cl)ccc1C | > 100 µM (inactive) | 
4 | CN1C(=O)c2ccccc2OC1(C)Cc1ccccc1 (stereo unspecified) | > 100 µM (inactive) | 
5 | COC(=O)c1sccc1NC(=O)Cn1nnc(-c2ccccc2C)n1 | > 100 µM (inactive) | 
6 | O=C(C[C@H]1CC[C@@H]2[C@H](COC[C@@H](O)CN2C(=O)Nc2cc(Cl)cc(Cl)c2)O1)N1CCOCC1 | > 100 µM (inactive) | 
7 | CCOC(=O)c1cnc2c(cnn2C)c1NCc1ccc(OC)cc1 | > 100 µM (inactive) | 
8 | CN(c1ccccc1)S(=O)(=O)c1cccc(C(=O)OCC(=O)NCc2ccco2)c1 | > 100 µM (inactive) | 
9 | CCOc1ccc2nc(SCC(=O)Nc3cccc(S(=O)(=O)NC4=NCCCCC4)c3)[nH]c2c1 | > 100 µM (inactive) | 
10 | Cc1ccc(C(=O)C2CCN(CC(=O)Nc3nc(C)cs3)CC2)cc1 | > 100 µM (inactive) | 
11 | CCC(C(=O)NCCc1ccc(C)cc1)n1nc(C)c2c(C)n(-c3ccccc3)nc2c1=O (stereo unspecified) | > 100 µM (inactive) | 
12 | O=C1Nc2ccc(F)cc2C12Nc1ccccc1-c1nnc(SCc3ccccc3)nc1O2 (stereo unspecified) | > 100 µM (inactive) | 
13 | COc1ccc(CNc2ccc([N+](=O)[O-])cc2C)cc1 | > 100 µM (inactive) | 
14 | CCC(=O)c1ccc(OCC(=O)Nc2nc(C)cs2)cc1 | > 100 µM (inactive) | 
15 | CCC(C)C(=O)Nc1nc2ccc(OC)cc2s1 (stereo unspecified) | > 100 µM (inactive) | 
16 | NC(=O)c1nsc(C(=O)N(c2ccccc2F)C(C(=O)NCc2ccc(F)cc2)c2ccc(O)cc2)c1N (stereo unspecified) | > 100 µM (inactive) | 
17 | O=C(NCc1ccccc1Cl)[C@H]1CCCN1C(=O)[C@H]1CCCN1C(=O)c1cccc2ccccc12 | > 100 µM (inactive) | 
18 | Cc1cc2nc(SCC(=O)O)nc(C)c2cc1C | > 100 µM (inactive) | 
19 | COc1cccc(C2c3cc4c(cc3OC(N3CCCC3)C2C)OCO4)c1O (stereo unspecified) | > 100 µM (inactive) | 
20 | COc1cc(O)c2c(c1)/C=C/C[C@H](O)[C@H](O)C(=O)CCC[C@H](C)OC2=O | > 100 µM (inactive) | 
21 | COc1ccc(C)cc1-n1c(=O)c2ccccc2c2ccccc2c1=O | > 100 µM (inactive) | 
22 | CCOc1ccc2nc(NC(=O)CSc3nc(SC)ns3)sc2c1 | > 100 µM (inactive) | 
23 | CN(C)CCCNc1ccc(-c2cc(Nc3cccc(Cl)c3)ncn2)cn1 | > 100 µM (inactive) | 
24 | Cc1ccc(Cl)cc1N1CCN(C(=O)c2ccc3nc[nH]c3c2)CC1 | > 100 µM (inactive) | 

Row | SMILES | AC50 | AC50 (measured here: WT GFP, test 1)
25 | O=C(O)c1ccccc1Nc1cc(Cl)c2nonc2c1[N+](=O)[O-] | > 100 µM (inactive) | 
26 | O=C(NCc1cccnc1)c1ccc(COc2ccc3c(c2)CCC3)o1 | > 100 µM (inactive) | 
27 | Cc1cccc(S(=O)(=O)NC(=O)C2(C)CCN2C(=O)c2ccccc2CCc2ccccc2)c1 (stereo unspecified) | > 100 µM (inactive) | 
28 | COc1cccc(NC(=O)C2CCC(CNS(=O)(=O)c3cccc4cccnc34)CC2)c1 (stereo unspecified) | > 100 µM (inactive) | 
29 | c1ccc(SCc2nc3ccccc3s2)nc1 | > 100 µM (inactive) | 
30 | CCC(=O)Nc1nc2ccc(NC(=O)c3cc(OC)c(OC)c(OC)c3)cc2s1 | > 100 µM (inactive) | 
31 | Cc1nn(S(=O)(=O)c2ccc(Cl)cc2)c(C)c1Sc1ccc([N+](=O)[O-])cc1 | > 100 µM (inactive) | 
32 | COc1ccc(C(=O)c2c(C)oc3ccc(O)cc23)cc1 | > 100 µM (inactive) | 
33 | COc1ccc2[nH]c3c(=O)n(CCCCC(=O)NCCC(C)C)c(=S)[nH]c3c2c1 | > 100 µM (inactive) | > 100 µM
34 | COc1cc(NC(=O)C(c2ccccc2)c2ccccc2)c(C(=O)O)cc1OC | > 100 µM (inactive) | 
35 | COc1cccc(CNC(=O)CCSCc2ccccc2F)c1 | > 100 µM (inactive) | 
36 | COc1ccc(-c2cc(C(=O)N(C)CCc3ccc(OC)c(OC)c3)c3ccccc3n2)cc1 | > 100 µM (inactive) | 
37 | Cc1cc(C)c(S(=O)(=O)NCCOc2ccccc2)c(C)c1-n1cnnn1 | > 100 µM (inactive) | 
38 | CCOc1ccccc1N1CCN(Cc2cn[nH]c2-c2ccc(F)cc2)CC1 | > 100 µM (inactive) | 
39 | COCCCn1c(C)cc(C(=O)COC(=O)CCc2nc3ccccc3c(=O)[nH]2)c1C | > 100 µM (inactive) | 
40 | Cc1cccc(NC(=O)CC23CC4CC(C2)CC(n2nnc(C)n2)(C4)C3)c1 | > 100 µM (inactive) | 
41 | CSC1=NCCN1C(=O)Cc1ccc(-c2ccccc2)cc1 | > 100 µM (inactive) | 
42 | COc1ccc(C(=O)C2CCCN(C(=O)c3noc4c3CCCC4)C2)cc1F (stereo unspecified) | > 100 µM (inactive) | 
43 | COc1cc2nc(Nc3ccc(F)cc3)nc(N)c2cc1OC | > 100 µM (inactive) | 
44 | O=C(Nc1cc(F)ccc1F)N1CCCCN2[C@@H](CO)[C@H](c3ccc(-c4ccncc4)cc3)[C@@H]2C1 | > 100 µM (inactive) | 
45 | Cc1cc(Br)ccc1NC(=O)c1ccco1 | > 100 µM (inactive) | 
46 | O=C1c2ccccc2C(=O)N1CCc1c[nH]c2ccccc12 | > 100 µM (inactive) | 
47 | CC1CCCN(c2ccc(C(=O)NCCc3ccccc3)cn2)C1 (stereo unspecified) | > 100 µM (inactive) | 
48 | O=C(Cn1cnc2ccccc21)c1ccc(Br)cc1 | > 100 µM (inactive) | 

Row | SMILES | AC50 | AC50 (measured here: WT GFP, test 1)
49 | COc1ccc(OC)c(-c2nnc3n2N=C(c2ccc(OC)c(OC)c2)CS3)c1 | > 100 µM (inactive) | 
50 | CCN(c1cccc2ccccc12)S(=O)(=O)c1ccc(Cl)nc1 | > 100 µM (inactive) | 
51 | COc1ccc(OCC2c3cc(OC)c(OC)cc3CCN2C(=O)C(C)C)cc1 (stereo unspecified) | > 100 µM (inactive) | 
52 | O=C(Nc1ccc(S(=O)(=O)N2CCCC2)cc1)c1ccc(OCC2CCCO2)cc1 (stereo unspecified) | > 100 µM (inactive) | 
53 | COc1ccccc1CNC(=O)CSc1ccc(C)cc1 | > 100 µM (inactive) | 
54 | COc1ccccc1CN1Cc2ccccc2Oc2ccccc2S1(=O)=O | > 100 µM (inactive) | 
55 | O=C(CN1CCCCC1)Nc1ccccc1-c1ccccc1 | > 100 µM (inactive) | 
56 | CC(=O)Oc1ccc(N(C(C)=O)S(=O)(=O)c2ccc(C)cc2)c2ccccc12 | > 100 µM (inactive) | 
57 | CC(=O)OC1N=C(c2ccccc2Cl)c2cc(Br)ccc2NC1=O (stereo unspecified) | > 100 µM (inactive) | 
58 | CCOC(=O)c1cnc2c(ccc3ccccc32)c1NCCCN(C)C | > 100 µM (inactive) | 
59 | COc1ccccc1NC(=O)CSc1nccn1Cc1ccc(F)cc1 | > 100 µM (inactive) | 
60 | Cc1ccccc1-n1ncc2c1CC(C)(C)CC2NC(=O)CCN1Cc2ccccc2C1=O (stereo unspecified) | > 100 µM (inactive) | 
61 | COc1ccccc1-c1cc2nc(NCCc3ccncc3)ccn2n1 | > 100 µM (inactive) | 
62 | O=C(Cc1coc2ccc3ccccc3c12)NCc1ccccc1 | > 100 µM (inactive) | 
63 | CCn1nc(Cc2cccc3ccccc23)c(C#N)c1N | > 100 µM (inactive) | 
64 | CC(=O)c1cccc(NC(=O)COC(=O)CCC(=O)c2ccc(F)cc2)c1 | > 100 µM (inactive) | 
65 | COc1ccc(OC)c(S(=O)(=O)Nc2cccc3ccccc23)c1 | > 100 µM (inactive) | 
66 | Cc1cc(C(=O)Nc2cccc3c2O[C@H](CN(C)S(=O)(=O)c2ccc(Cl)cc2)[C@H](C)CN([C@H](C)CO)C3=O)n(C)n1 | > 100 µM (inactive) | 
67 | O=C(Cc1cccc(NC(=O)C2CCN(C(=O)CCc3ccccc3)CC2)c1)Nc1cccc(C(=O)N2CCCC2)c1 | > 100 µM (inactive) | 
68 | Cc1ccsc1C(=O)OCC(=O)N1CCc2ccccc2C1 | > 100 µM (inactive) | 
69 | CSc1cccc(NC(=O)CSc2nc3ccccc3o2)c1 | > 100 µM (inactive) | 
70 | O=C(c1ccccc1)C1CN(Cc2ccccc2)CCC1(O)c1ccccc1 (stereo unspecified) | > 100 µM (inactive) | 
71 | COC(=O)c1ccc(CN2CCCC(CO)(Cc3ccccc3F)C2)cc1 (stereo unspecified) | > 100 µM (inactive) | 
72 | COc1cccc(Nc2nc(N)c([N+](=O)[O-])c(NCc3ccccc3)n2)c1 | > 100 µM (inactive) | 

Row | SMILES | AC50 | AC50 (measured here: WT GFP, test 1)
73 | CC(C)C[C@@H](CSc1ccccc1)N1CCN(CC(C)C)CCC1=O | > 100 µM (inactive) | 
74 | O=c1[nH]c(C2CCCN(S(=O)(=O)c3ccccc3Cl)C2)nc2c1nnn2Cc1ccc2c(c1)OCCO2 (stereo unspecified) | > 100 µM (inactive) | 
75 | CCOC(=O)c1cc(C)nc(N2CCCCC2)c1C#N | > 100 µM (inactive) | 
76 | CC1(C(=O)NS(=O)(=O)c2ccc3c(c2)CCO3)CCN1C(=O)c1ccccc1CCc1ccccc1 (stereo unspecified) | > 100 µM (inactive) | 
77 | O=C(Nc1ccc2nc(-c3ccccc3)[nH]c2c1)c1cccs1 | > 100 µM (inactive) | 
78 | C=CCn1c(C)cc(C(=O)COC(=O)CNC(=O)c2ccccc2)c1C | > 100 µM (inactive) | 
79 | O=C(NCc1nc2ccccc2[nH]1)c1ccc(S(=O)(=O)N2CCCC2)cc1 | > 100 µM (inactive) | 
80 | Cc1cccc(CN2C(=O)c3ccccc3Sc3ccc(C(=O)O)cc32)c1 | > 100 µM (inactive) | 
81 | O=C(Cc1cccc(NC(=O)C2CCN(C(=O)C3CCCCC3)CC2)c1)Nc1cccc(C(=O)N2CCCC2)c1 | > 100 µM (inactive) | 
82 | O=C1CCCN1CCCNc1ncnc2c1[nH]c1ccc(Cl)cc12 | > 100 µM (inactive) | 
83 | CC1(C(=O)NS(=O)(=O)c2cccs2)CCN1C(=O)C1(c2ccc(Cl)cc2)CCC1 (stereo unspecified) | > 100 µM (inactive) | 
84 | COc1ccccc1-n1c(Cc2ccccc2)nc2ccccc2c1=O | > 100 µM (inactive) | 
85 | CC(=O)c1ccc(N2CCN(C(=O)C3CCN(S(=O)(=O)c4ccc5c(c4)CC(C)N5C(C)=O)CC3)CC2)cc1 (stereo unspecified) | > 100 µM (inactive) | 
86 | CC1CCCCN1CC(O)COCCC12CC3CC(CC(C3)C1)C2 (stereo unspecified) | > 100 µM (inactive) | 
87 | CCn1nnc(NC(=O)c2ccc([N+](=O)[O-])o2)n1 | > 100 µM (inactive) | 
88 | O=C(CCC(=O)N1CCN(c2ccc(F)cc2)CC1)N1CCN(c2ccc(F)cc2)CC1 | > 100 µM (inactive) | 
89 | CCOC(=O)Cc1csc(NC(=O)c2cc3ccccc3o2)n1 | > 100 µM (inactive) | 
90 | CC(Nc1ncnc2ccccc12)c1ccccc1 (stereo unspecified) | > 100 µM (inactive) | 
91 | O=C(CCc1nc2ccccc2s1)OCC(=O)c1ccc[nH]1 | > 100 µM (inactive) | 
92 | CC1(C)CC(=O)c2cnc(N3CCc4ccccc43)nc2C1 | > 100 µM (inactive) | 
93 | CCCc1c(C(=O)Nc2ccc(OC)cc2)cnn1-c1ccccc1 | > 100 µM (inactive) | 
94 | COc1ccccc1Cn1c(=S)[nH]c2ccc(F)cc2c1=O | > 100 µM (inactive) | 
95 | O=C(CCCOc1ccc(Cl)cc1Cl)Nc1ccccc1C(=O)O | > 100 µM (inactive) | 
